Data as given in US20240252496A1, “SELECTIVE HYPOTHALAMUS PERMEABLE HDAC6 INHIBITORS FORTREATMENT OF LEPTIN-RESISTANT OBESITY” (The Children’s Medical Center Corporation, priority 2022, published 2024).
“Also recorded” adds a separate entry of the source.

Tests used:
HDAC6 KO mice = test: 3-week treatment of DIO WT versus HDAC6 KO mice; format: in vivo; details: for body weight, HDAC6 KO vs WT DIO mice: 3 weeks i.p., ACY775 10, ACY738 50, Tubastatin A 25 mg/kg/day
HDAC6 in AgRP neurons = test: DIO mice with HDAC6 deleted in AgRP neurons (HDAC6^Agrp-Δ); format: in vivo; details: chronic treatment
Method: Design, validation, and stereotaxic injection of AAV viral vector carrying the guide RNAs targeting the mouse HDAC6 genomic locus. Three designed sgRNAs were concatenated and constructed into an AAV vector carrying a cre-enabled mCherry fluorescent marker.
Following the bilateral injection of AAV-sgHDAC6 into the arcuate nucleus of Agrp-ires-cre::LSL-Cas9-GFP (Agrp-Cre^+/−::Cas9^+/−) or control LSL-Cas9-GFP (Cas9^+/−) mice, immunostaining to detect the expression of mCherry and GFP was performed. AAV-sg-HDAC6 injected Agrp-Cre^+/−::Cas9^+/− (HDAC6^Agrp-Δ) and Cas9^+/− (HDAC6^WT) DIO mice (n=7 for each group) were fasted for 24 hours, and injected with ACY775 (10 mg/kg. i.p). Hourly total dark cycle food intake (g) (n=7 for each group) of these mice after ACY775 injection was measured. Body weight of AAV-sg-HDAC6 injected HDAC6^Agrp-Δ (n=11) and HDAC6^WT (n=6) mice were measured during 3 weeks of ACY775 (10 mg/kg/day, i.p.) treatment. Daily average food intake of HDAC6^Agro-Δ (n=11) and HDAC6^WT (n=6) mice was measured during 3 weeks of ACY775 (10 mg/kg/day, i.p.) treatment. 24-hour food intake average of HDAC Agrp- and HDAC6^WT mice during the 3 weeks of ACY775 treatment was assessed. Serum leptin level (ng/ml) of HDAC6^Agrp-Δ and HDAC6^WT mice after 2 weeks of ACY775 treatment (n=13 for HDAC6^WT and n=18 for HDAC6^Agrp-Δ) was measured. Lean mass (g); fat mass; and fat percentage (%) of HDAC Agrp- and HDAC6^WT DIO mice after 3 weeks of ACY775 treatment was measured by DEXA scan. The HDAC6 inhibitor responsive neurons in the dorsomedial hypothalamus (DMH) were assessed. Immunostaining and quantification of c-Fos expression was performed in the DMH of DIO mice following one-time ACY775 treatment (10 mg/kg, i.p.).

[1] = Brain/plasma ratio, brain and hypothalamus penetrance; format: in vivo; details: in words
diet-induced obese mice = details: cited from earlier work
HDAC6 = HDAC6 (Mus musculus (Mouse), UniProt Q9Z2V5); test: HDAC6 inhibition in hypothalamus and other brain regions (Ac-tubulin); set-up: species or system mice; details: in vivo
[2] = cited from earlier work; for brain penetrance / BBB permeability: in words
DIO mice [3] = test: Chronic treatment of DIO mice (body weight, food intake, leptin, DEXA); format: in vivo; details: for body weight effect of chronic treatment: DIO mice, 3 weeks i.p., bavarostat 10, citarinostat 25, ricolinostat 50 mg/kg; for food intake and total body fat mass: high fat diet induced mice, summary
Method: DIO mice were treated with ACY775 (10 mg/kg/day, i.p.) for 3 weeks. Daily body weight (g) of DIO mice treated with vehicle (n=17) or ACY775 (n=17) during 3 weeks of treatment was determined. Daily food intake (g) during 3 weeks of vehicle or ACY775 treatment was assessed. 24 hours' food intake per mouse during the first week of vehicle or ACY775 treatment was determined. Serum leptin (ng/ml) levels after 3 weeks of vehicle (n=24) or ACY775 (n=24) treatment was assessed. Lean mass (g), fat mass (g) and fat percentage (%) after 3 weeks of vehicle (n=17) or ACY775 (n=17) treatment measured by Dual-energy X-ray absorptiometry (DEXA) scan. DEXA scans were performed in two different cohorts. Glucose tolerance test (GTT) after 1 week of vehicle (n=33) or ACY775 (n=26) treated DIO mice was assessed. Area of curve (AOC) analysis for GTT was performed. Blood glucose (mg/dl) levels after 1 week of vehicle (n=17) or ACY775 (n=16) were assessed in treated DIO mice. Insulin tolerance test (ITT) was performed after 2 weeks of vehicle (n=31) or ACY775 (n=21) treatment of DIO mice. Serum insulin (ng/ml) levels were measured after 3 weeks of vehicle (n=22) or ACY775 (n=21) in treated DIO mice. A homeostatic model assessment of insulin resistance (HOMA-IR) was analyzed after 3 weeks of vehicle (n=14) or ACY775 (n=13) treated DIO mice.
Food intake was analyzed hourly until 3:00 am. […] DEXA scans were performed in two different cohorts.
DIO mice then were treated with ricolinostat (50 mg/kg, i.p.) for 3 weeks. Daily body weight (g), daily food intake (g), serum leptin (ng/ml) levels after 3 weeks of vehicle (n=8) or ricolinostat (n=8) treatment, lean mass (g); fat mass and fat percentage (%) after 3 weeks of vehicle (n=16) or ricolinostat (n=17) treatment measured by DEXA scan were determined.
Studies were conducted as described above with reference to ACY775.
DIO mice then were treated with bavarostat (10 mg/kg, i.p.) for 3 weeks and daily body weight (g) of DIO mice treated with Veh (n=9) or bavarostat (n=9) measured during the three weeks of treatment period. Daily food intake (g) during 3 weeks of Veh or bavarostat treatment was also measured.
ACY1083 was administered to DIO mice as described in Example 3.

[4] = system: STAT3^Tyr705 phosphorylation; test: Leptin-stimulated hypothalamic STAT3 phosphorylation in DIO mice; format: in vivo; details: leptin 1 mg/kg i.p.
Method: DIO mice were pretreated with ACY775 (10 mg/kg/day, i.p.) or vehicle for 3 days, which was followed by a last injection of ACY775 (or vehicle) in the morning of fourth day. 6 hours later mice were injected with saline or leptin (1 mg/kg, i.p.) and hypothalamus were extracted after 45 minutes following the leptin injection. Representative immunoblots for STAT3^Tyr705 phosphorylation and total STAT3 from the hypothalamus. Quantification of the ratio of p-STAT3^Tyr705 to total-STAT3 signal in the immunoblots. The results were reproduced in three independent experiments. The results were analyzed hourly.
DIO mice were pretreated with ACY775 (10 mg/kg/day, i.p.) or vehicle for 3 days, which was followed by a last injection of ACY775 (or vehicle) in the morning of fourth day. 6 hours later mice were injected with saline or leptin (1 mg/kg, i.p.) and the hypothalamus were extracted after 45 minutes following the leptin injection.
6 hours later mice were injected with saline or leptin (1 mg/kg, i.p.) and hypothalamus were extracted after 45 minutes following the leptin injection. Immunoblots for STAT3^Tyr705 phosphorylation and total STAT3 from the hypothalamus were made to quantify the ratio of p-STAT3^Tyr705 to total-STAT3 signal in the immunoblots. The results were reproduced in two independent experiments.
DIO mice were pretreated with ricolinostat (50 mg/kg/day, i.p.) or vehicle 3 days, which was followed by a last injection of ricolinostat (or vehicle) in the morning of fourth day. 6 hours later mice were injected with saline or leptin (1 mg/kg, i.p.) and the hypothalamus were extracted after 45 minutes following the leptin injection. Immunoblots were performed for STAT3^Tyr705 phosphorylation and total STAT3 from the hypothalamus. The ratio of p-STAT3^Tyr705 to total STAT3 signal in the immunoblots was quantified.

DIO mice [5] = test: Acute leptin co-treatment in DIO mice (body weight, food intake 15 h); format: in vivo; details: leptin 1 mg/kg i.p.
Method: DIO mice were pretreated with ACY775 (10 mg/kg/day, i.p.) or vehicle for 3 days, which was followed by co-treatment with ACY775 (or vehicle) and leptin (1 mg/kg, i.p.) (or saline) (n=9 for each group), % change in body weight 15 h after leptin treatment, food intake (g) during the 15 h period after leptin treatment. The results in were reproduced in two independent experiments.
Diet induced obese (DIO) mice were pretreated with ACY775 (10 mg/kg/day, i.p.) or vehicle for 3 days, which was followed by co-treatment with ACY775 (or vehicle) and leptin (1 mg/kg, i.p.) (or saline) (n=9 for each group). Mice were evaluated for % change in body weight 15 h after leptin treatment, and food intake (g) during the 15 h period after leptin treatment.
DIO mice were pretreated with ricolinostat (25 mg/kg/day, i.p.) or vehicle for 3 days, which was followed by co-treatment with ricolinostat (or vehicle) and leptin (1 mg/kg, i.p.) (or saline) (n=32 for each group). Change in body weight 15 h after leptin treatment, and food intake (g) during the 15 h period after leptin treatment were determined. The results were reproduced in two independent experiments.

[6] = 5 mg/kg i.p.; cited from earlier work

Sequence of HDAC6 (Q9Z2V5 whole entry): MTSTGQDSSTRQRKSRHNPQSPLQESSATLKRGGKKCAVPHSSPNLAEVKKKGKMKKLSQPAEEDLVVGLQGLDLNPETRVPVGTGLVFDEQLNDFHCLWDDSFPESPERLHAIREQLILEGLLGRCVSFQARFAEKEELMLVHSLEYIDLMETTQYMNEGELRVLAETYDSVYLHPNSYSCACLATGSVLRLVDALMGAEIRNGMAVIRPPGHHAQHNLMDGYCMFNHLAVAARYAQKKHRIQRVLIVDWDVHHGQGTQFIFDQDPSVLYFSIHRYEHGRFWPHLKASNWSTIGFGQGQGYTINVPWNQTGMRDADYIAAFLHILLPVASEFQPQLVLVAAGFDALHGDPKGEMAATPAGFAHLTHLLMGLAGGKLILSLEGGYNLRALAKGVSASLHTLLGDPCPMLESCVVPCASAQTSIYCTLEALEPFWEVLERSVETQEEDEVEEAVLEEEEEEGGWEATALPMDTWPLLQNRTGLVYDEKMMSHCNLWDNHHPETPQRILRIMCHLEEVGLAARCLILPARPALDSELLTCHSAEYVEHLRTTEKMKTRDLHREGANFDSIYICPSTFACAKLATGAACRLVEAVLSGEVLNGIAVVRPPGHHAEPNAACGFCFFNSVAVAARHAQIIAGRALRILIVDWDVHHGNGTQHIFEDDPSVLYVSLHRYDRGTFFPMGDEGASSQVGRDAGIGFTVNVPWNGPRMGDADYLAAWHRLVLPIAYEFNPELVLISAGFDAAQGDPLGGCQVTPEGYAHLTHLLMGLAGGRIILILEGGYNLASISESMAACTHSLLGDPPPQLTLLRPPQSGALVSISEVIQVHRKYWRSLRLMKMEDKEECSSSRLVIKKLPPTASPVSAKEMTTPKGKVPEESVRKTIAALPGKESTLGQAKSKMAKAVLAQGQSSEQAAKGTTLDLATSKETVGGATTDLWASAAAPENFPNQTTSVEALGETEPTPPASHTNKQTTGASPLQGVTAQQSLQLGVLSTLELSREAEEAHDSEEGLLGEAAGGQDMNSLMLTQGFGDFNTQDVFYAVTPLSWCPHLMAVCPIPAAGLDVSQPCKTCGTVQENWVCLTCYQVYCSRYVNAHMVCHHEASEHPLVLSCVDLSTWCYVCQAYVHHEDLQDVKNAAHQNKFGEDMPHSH

Compound | body weight, HDAC6 KO vs WT DIO mice (HDAC6 KO mice) | penetrance into the hypothalamus [1] | HDAC6 inhibition in the hypothalamus (HDAC6) | brain penetrance / BBB permeability [2] | body weight effect of chronic treatment (DIO mice [3]) | food intake and total body fat mass (DIO mice [3]) | HDAC6 inhibition in other brain regions (cerebrum, frontal lobe, temporal lobe, brainstem) (HDAC6) | other results
CN1CCc2c(c3ccccc3n2Cc2ccc(C(=O)NO)cc2)C1 [Tubastatin A] | reduced the body weight of the HDAC6 KO mice the same as the wt mice | neither of which have high penetrance into the hypothalamus | nor show HDAC6 inhibition in the hypothalamus | extremely low | – | – | – | fat mass and fat %, HDAC6 KO vs WT (HDAC6 KO mice; DEXA): significantly lower in both wt and HDAC6 KO groups; lean mass, HDAC6 KO vs WT (HDAC6 KO mice; DEXA): not different; blood glucose, serum insulin and leptin levels, HDAC6 KO vs WT (HDAC6 KO mice; mouse, in vivo): reduced equally in the wt and HDAC6 KO group; food intake, HDAC6 KO vs WT DIO mice (HDAC6 KO mice; mouse, in vivo): reduced similarly; glucose tolerance and insulin sensitivity (GTT, ITT), HDAC6 KO vs WT (HDAC6 KO mice; mouse, in vivo): improved glucose tolerance and increased insulin sensitivity in both wt and the HDAC6 KO mice; anti-obesity effects in HDAC6^Agrp-Δ vs HDAC6^WT DIO mice (HDAC6 in AgRP neurons): did not change Tubastatin A's effects on suppressing feeding or body weight; anti-obesity effects reported by Cakir et al. (diet-induced obese mice): reduce food intake, fat mass, hepatic steatosis and improve systemic glucose homeostasis; also recorded: attenuated in animals with a defective central leptin-melanocortin circuitry; brain/plasma ratio ([2]; in vivo): 0.18
CN(Cc1ccc(C(=O)NO)cc1F)CC12CC3CC(CC(C3)C1)C2 [Bavarostat, 4-(((((3r,5r,7r)-adamantan-1-yl)methyl)(methyl)amino)methyl)-3-fluoro-N-hydroxybenzamide] | treatment of wild type mice but not HDAC6 Knockout animals with bavarostat caused weight loss | high penetrance of the hypothalamus | – | high brain penetrance | Significant weight loss; also recorded: statistically significantly effective in reducing food intake and body weight | significant reduction of food intake and total body fat mass | – | –
leptin: peptide hormone, product of the obese (ob) gene | – | – | – | – | – | – | – | hypothalamic STAT3^Tyr705 phosphorylation, leptin in vehicle-treated mice [4]: did not significantly increase STAT3^Tyr705 phosphorylation; body weight, leptin alone (DIO mice [5]): did not significantly alter their bodyweight; also recorded: did not change their bodyweight; food intake, leptin alone (DIO mice [5]): did not significantly change the food intake
O=C(CCCCCCNC(=O)c1cnc(N(c2ccccc2)c2ccccc2Cl)nc1)NO [Citarinostat] | – | – | not in the hypothalamus | good brain penetrance | not effective in reducing body weight | – | inhibits HDAC6 in other brain regions | HDAC6 inhibition in the hypothalamus (HDAC6; listed as citarinostat): does not show HDAC6 inhibition in the AGP neurons in the hypothalamus; body weight effect of chronic treatment (DIO mice [3]; listed as citarinostat): ineffective weight lowering effect
CC1CCC(C(C)(C2CCC(C)CC2)C2CCC(C(C)C(C)CCCCC(C)C(C)C)CC2)CC1 (stereo not shown) [ACY257] | – | high penetrance into the arctuate nucleus of the hypothalamus | inhibits HDAC6 in the hypothalamus | limited brain expression | as effective as ACY775 in reducing body weight; also recorded: Significant weight loss; also recorded: as effective as ACY775 in lowering body weight | significant reduction of food intake and total body fat mass | does not inhibit HDAC6 in other brain regions | Cmax [6]: 1047 ng/mL; Plasma AUClast [6]: 871 (5 mg/kg i.p.) hr*ng/ml; T1/2 [6]: 8.15 h; body weight effect of chronic treatment (DIO mice [3]; listed as ACY 257): greatly reduces body weight; AUC Brain/AUC Plasma Ratio ([2]; in vivo): 0.01
